Source: ChEMBL document CHEMBL5442175, “EUbOPEN Chemogenomics Library - PDSP Secondary Binding” (2024)

Columns and labels:
[1] = target: T1, Alpha-1B adrenergic receptor (Homo sapiens, UniProt P35368); assay: (§1) PDSP Secondary Binding target: ADRA1B - Compounds are tested at 10 uM concentration, plate are incubated at room temperature in the dark for 90 minutes. Reaction are stopped by vacuum filtration onto 0.3% polyethyleneimine soaked filter mats using Filtermate harvester. Scintillation cocktail is then melted onto microwave-dried filters on a hot plate and the radio activity is counted in Microbia counter.
T1 sequence (P35368 whole entry): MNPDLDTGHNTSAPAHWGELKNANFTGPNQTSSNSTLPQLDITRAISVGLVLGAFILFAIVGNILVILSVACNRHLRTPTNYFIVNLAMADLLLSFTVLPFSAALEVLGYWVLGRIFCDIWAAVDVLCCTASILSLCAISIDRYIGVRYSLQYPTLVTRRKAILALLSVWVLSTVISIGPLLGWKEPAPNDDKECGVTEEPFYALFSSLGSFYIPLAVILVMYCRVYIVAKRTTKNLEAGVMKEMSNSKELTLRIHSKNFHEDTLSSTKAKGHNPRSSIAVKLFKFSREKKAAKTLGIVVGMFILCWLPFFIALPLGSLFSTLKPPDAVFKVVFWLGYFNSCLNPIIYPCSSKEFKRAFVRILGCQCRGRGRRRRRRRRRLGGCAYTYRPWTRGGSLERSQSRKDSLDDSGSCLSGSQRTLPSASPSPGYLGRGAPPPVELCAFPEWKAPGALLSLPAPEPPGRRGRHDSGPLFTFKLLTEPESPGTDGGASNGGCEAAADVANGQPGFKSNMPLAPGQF

D(1B) dopamine receptor = D(1B) dopamine receptor (Homo sapiens, UniProt P21918); assay: as §1, with “DRD5” for “ADRA1B”
[2] = target: T2, 5-hydroxytryptamine receptor 3A (Homo sapiens, UniProt P46098); assay: as §1, with “HTR3A” for “ADRA1B”
T2 sequence (P46098 whole entry): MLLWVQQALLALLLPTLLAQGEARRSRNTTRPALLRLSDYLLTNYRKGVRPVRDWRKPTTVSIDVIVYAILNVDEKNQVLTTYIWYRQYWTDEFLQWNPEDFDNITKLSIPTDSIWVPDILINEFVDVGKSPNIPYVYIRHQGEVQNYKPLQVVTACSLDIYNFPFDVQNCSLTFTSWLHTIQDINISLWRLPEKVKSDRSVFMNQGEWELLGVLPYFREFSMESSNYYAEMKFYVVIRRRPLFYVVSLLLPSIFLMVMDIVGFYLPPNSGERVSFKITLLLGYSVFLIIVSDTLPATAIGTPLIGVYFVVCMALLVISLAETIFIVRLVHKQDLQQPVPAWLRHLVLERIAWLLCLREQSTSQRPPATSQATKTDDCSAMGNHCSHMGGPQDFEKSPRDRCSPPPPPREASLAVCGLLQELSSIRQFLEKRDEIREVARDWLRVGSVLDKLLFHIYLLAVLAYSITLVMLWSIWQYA

[3] = target: Sodium-dependent noradrenaline transporter (Homo sapiens, UniProt P23975); assay: as §1, with “SLC6A2” for “ADRA1B”
[4] = target: 5-hydroxytryptamine receptor 1D (Homo sapiens, UniProt P28221); assay: as §1, with “HTR1D” for “ADRA1B”
[5] = target: T3, Muscarinic acetylcholine receptor M1 (Homo sapiens, UniProt P11229); assay: as §1, with “CHRM1” for “ADRA1B”
T3 sequence (P11229 whole entry): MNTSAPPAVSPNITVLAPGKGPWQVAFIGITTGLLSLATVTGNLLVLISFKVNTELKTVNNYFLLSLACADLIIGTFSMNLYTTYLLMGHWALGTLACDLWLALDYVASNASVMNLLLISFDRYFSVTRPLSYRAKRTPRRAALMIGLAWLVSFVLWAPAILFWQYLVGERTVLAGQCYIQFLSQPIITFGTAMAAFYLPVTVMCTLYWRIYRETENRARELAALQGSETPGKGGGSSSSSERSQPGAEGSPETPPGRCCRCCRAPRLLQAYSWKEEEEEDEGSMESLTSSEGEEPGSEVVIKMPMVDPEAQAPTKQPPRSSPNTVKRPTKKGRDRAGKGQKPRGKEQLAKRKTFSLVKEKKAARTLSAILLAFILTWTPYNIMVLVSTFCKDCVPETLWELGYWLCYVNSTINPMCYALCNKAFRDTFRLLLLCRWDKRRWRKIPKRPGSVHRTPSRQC

[6] = target: Muscarinic acetylcholine receptor M3 (Homo sapiens, UniProt P20309); assay: as §1, with “CHRM3” for “ADRA1B”
[7] = target: 5-hydroxytryptamine receptor 6 (Homo sapiens, UniProt P50406); assay: as §1, with “HTR6” for “ADRA1B”
Histamine H2 receptor = Histamine H2 receptor (Homo sapiens, UniProt P25021); assay: as §1, with “HRH2” for “ADRA1B”
[8] = target: 5-hydroxytryptamine receptor 2A (Homo sapiens, UniProt P28223); assay: as §1, with “HTR2A” for “ADRA1B”
D(2) dopamine receptor = D(2) dopamine receptor (Homo sapiens, UniProt P14416); assay: as §1, with “DRD2” for “ADRA1B”
[9] = target: T4, Alpha-1D adrenergic receptor (Homo sapiens, UniProt P25100); assay: as §1, with “ADRA1D” for “ADRA1B”
T4 sequence (P25100 whole entry): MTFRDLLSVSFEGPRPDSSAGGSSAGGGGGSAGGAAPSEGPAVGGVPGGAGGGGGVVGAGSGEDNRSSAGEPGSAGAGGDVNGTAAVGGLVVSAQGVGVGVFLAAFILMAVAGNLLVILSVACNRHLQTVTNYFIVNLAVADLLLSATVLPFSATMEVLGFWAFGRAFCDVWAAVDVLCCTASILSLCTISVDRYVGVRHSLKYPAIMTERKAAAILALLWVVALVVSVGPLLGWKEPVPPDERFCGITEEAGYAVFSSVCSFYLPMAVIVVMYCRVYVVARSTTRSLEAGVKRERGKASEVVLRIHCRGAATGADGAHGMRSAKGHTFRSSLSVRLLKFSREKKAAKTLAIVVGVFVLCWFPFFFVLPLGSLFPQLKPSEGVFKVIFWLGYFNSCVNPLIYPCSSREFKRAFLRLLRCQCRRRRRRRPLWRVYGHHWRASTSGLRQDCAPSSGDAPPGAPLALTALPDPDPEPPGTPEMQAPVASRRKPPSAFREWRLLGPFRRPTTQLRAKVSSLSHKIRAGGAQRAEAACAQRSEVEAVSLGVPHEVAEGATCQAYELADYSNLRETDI

D(3) dopamine receptor = D(3) dopamine receptor (Homo sapiens, UniProt P35462); assay: as §1, with “DRD3” for “ADRA1B”
[10] = target: Sigma non-opioid intracellular receptor 1 (Homo sapiens, UniProt Q99720); assay: as §1, with “SIGMAR1” for “ADRA1B”
[11] = target: 5-hydroxytryptamine receptor 7 (Homo sapiens, UniProt P34969); assay: as §1, with “HTR7” for “ADRA1B”
Sequence of 5-hydroxytryptamine receptor 7 (P34969 whole entry): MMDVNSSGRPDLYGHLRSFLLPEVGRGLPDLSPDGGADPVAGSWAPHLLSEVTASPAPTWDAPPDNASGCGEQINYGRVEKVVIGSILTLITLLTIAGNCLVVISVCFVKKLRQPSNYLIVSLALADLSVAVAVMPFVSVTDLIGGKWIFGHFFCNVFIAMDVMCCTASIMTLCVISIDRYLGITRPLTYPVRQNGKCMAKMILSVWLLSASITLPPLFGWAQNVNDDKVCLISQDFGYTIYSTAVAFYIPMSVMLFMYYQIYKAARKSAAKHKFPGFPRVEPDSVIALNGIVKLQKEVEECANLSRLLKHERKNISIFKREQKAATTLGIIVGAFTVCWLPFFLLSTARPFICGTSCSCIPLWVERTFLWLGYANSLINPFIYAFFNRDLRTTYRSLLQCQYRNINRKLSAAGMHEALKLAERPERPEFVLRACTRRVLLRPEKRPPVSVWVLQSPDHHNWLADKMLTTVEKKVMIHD

Sequence of D(3) dopamine receptor (P35462 whole entry): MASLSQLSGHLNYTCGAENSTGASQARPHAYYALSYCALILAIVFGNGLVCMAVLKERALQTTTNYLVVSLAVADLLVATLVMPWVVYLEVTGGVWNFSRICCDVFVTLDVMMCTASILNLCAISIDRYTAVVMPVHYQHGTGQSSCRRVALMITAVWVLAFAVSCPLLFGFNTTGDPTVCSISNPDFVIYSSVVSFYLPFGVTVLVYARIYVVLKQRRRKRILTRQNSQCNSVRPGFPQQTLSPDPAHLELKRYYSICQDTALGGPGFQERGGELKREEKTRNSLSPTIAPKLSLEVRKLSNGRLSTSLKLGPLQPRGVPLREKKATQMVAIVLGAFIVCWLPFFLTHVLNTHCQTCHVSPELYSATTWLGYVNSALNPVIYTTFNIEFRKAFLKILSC
Sequence of Muscarinic acetylcholine receptor M3 (P20309 whole entry): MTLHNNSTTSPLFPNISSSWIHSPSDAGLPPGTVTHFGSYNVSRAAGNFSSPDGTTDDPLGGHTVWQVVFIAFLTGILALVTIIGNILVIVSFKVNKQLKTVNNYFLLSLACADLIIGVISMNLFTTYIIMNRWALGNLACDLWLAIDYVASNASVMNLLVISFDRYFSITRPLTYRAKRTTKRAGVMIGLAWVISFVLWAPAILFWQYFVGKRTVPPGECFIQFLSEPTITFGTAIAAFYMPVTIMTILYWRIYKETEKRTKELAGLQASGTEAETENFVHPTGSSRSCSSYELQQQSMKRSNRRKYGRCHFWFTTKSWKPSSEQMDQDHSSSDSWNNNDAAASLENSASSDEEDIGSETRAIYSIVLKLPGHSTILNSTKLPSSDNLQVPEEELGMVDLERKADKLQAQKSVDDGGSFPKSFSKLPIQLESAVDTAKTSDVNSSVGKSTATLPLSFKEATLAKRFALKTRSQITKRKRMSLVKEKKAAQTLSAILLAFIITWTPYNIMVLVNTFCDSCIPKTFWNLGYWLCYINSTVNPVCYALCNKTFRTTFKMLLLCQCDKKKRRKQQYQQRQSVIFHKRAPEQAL
Sequence of 5-hydroxytryptamine receptor 1D (P28221 whole entry): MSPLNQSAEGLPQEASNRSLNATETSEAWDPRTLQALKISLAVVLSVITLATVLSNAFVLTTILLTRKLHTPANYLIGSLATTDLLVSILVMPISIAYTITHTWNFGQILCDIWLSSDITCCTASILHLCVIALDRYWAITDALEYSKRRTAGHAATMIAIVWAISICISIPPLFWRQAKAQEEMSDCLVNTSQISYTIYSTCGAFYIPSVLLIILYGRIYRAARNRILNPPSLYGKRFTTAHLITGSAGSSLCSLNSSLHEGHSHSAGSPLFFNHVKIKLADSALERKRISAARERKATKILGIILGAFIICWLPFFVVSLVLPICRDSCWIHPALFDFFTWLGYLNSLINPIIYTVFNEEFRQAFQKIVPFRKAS
Sequence of D(2) dopamine receptor (P14416 whole entry): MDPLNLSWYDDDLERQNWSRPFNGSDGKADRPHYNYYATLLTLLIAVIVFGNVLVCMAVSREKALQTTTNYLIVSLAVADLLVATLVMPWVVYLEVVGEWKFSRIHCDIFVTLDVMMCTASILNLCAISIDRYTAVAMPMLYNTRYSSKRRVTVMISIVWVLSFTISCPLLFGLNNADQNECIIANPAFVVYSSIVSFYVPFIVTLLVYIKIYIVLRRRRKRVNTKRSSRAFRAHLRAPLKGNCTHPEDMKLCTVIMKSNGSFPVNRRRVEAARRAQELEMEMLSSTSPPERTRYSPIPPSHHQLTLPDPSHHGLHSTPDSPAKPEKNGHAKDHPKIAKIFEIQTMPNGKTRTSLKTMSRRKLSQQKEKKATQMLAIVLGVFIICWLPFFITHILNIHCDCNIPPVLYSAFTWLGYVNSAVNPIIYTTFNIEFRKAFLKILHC
Sequence of 5-hydroxytryptamine receptor 6 (P50406 whole entry): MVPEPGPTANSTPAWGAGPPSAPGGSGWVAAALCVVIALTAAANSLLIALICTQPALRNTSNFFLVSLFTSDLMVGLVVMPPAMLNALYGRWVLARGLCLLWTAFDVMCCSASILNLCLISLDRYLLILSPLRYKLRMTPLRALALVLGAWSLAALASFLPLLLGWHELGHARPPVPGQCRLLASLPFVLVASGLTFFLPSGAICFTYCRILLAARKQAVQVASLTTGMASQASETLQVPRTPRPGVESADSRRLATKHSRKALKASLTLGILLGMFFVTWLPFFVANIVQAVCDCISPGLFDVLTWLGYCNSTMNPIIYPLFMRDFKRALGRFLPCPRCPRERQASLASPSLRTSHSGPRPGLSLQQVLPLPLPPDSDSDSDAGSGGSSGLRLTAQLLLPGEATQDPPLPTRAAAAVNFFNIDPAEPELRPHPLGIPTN
Sequence of D(1B) dopamine receptor (P21918 whole entry): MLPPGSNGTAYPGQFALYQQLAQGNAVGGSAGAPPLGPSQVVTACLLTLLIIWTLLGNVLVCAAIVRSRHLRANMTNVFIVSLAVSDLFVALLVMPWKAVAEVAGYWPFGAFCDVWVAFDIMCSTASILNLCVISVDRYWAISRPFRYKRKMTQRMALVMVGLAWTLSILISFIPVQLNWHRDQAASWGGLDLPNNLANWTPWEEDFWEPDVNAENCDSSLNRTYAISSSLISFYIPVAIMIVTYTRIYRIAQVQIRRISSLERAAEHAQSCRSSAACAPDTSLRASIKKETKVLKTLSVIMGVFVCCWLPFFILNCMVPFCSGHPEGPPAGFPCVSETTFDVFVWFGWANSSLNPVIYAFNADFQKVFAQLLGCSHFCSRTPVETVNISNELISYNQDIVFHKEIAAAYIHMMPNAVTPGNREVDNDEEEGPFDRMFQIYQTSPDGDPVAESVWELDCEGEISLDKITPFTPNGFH
Sequence of Histamine H2 receptor (P25021 whole entry): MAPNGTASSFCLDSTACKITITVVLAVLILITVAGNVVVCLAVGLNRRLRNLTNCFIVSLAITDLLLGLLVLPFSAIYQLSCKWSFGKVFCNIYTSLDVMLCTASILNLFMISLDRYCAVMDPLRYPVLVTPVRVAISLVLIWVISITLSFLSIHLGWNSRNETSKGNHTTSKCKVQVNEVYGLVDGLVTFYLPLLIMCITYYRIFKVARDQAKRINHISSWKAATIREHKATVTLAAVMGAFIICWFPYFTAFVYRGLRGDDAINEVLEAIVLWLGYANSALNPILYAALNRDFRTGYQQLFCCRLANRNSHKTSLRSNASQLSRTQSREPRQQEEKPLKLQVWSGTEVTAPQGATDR
Sequence of Sigma non-opioid intracellular receptor 1 (Q99720 whole entry): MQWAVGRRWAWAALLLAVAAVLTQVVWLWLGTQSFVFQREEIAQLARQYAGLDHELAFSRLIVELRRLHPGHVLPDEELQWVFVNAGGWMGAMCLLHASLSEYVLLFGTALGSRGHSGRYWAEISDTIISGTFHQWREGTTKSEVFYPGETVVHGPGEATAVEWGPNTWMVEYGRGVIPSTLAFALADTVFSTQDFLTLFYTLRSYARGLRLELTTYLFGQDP
Sequence of Sodium-dependent noradrenaline transporter (P23975 whole entry): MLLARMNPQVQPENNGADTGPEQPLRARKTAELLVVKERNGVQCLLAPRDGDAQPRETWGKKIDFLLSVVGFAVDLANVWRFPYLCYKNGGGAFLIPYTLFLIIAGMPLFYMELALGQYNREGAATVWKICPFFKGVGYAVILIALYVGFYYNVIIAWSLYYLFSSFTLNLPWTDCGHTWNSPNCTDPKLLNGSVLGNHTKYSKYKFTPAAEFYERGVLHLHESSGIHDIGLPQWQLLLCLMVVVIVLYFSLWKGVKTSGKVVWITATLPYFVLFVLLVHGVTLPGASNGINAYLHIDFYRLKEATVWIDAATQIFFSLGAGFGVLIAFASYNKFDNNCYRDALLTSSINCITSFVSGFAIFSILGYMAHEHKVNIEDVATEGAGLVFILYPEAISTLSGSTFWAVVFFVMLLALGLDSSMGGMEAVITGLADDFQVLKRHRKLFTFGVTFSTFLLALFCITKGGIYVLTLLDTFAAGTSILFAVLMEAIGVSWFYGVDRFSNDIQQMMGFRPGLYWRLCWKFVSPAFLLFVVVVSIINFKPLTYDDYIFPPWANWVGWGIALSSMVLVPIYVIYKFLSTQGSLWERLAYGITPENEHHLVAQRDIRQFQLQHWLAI
Sequence of 5-hydroxytryptamine receptor 2A (P28223 whole entry): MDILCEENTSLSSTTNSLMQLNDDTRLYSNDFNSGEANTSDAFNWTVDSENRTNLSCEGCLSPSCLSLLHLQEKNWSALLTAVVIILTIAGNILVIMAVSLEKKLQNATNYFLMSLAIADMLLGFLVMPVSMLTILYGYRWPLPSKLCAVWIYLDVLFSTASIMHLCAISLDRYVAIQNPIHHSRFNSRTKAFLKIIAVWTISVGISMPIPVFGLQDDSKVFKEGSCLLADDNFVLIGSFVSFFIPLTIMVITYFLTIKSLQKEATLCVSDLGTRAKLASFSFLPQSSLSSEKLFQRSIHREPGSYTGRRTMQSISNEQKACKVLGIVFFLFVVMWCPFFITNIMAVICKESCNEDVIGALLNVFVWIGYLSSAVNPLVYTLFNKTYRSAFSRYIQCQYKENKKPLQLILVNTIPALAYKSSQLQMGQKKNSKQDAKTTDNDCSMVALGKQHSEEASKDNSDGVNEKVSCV

## CN1C2CCC1CC(OC(c1ccc(F)cc1)c1ccc(F)cc1)C2 (stereo not given)
[1]
  Ki: 263 nM
D(1B) dopamine receptor
  Ki: 393 nM
[2]
  Ki: 2070 nM
[3]
  Ki: 769 nM
[4]
  Ki: 1130 nM
[5]
  Ki: 9.74 nM
[6]
  Ki: 5.82 nM
[7]
  Ki: 374 nM
Histamine H2 receptor
  Ki: 594 nM
[8]
  Ki: 17.4 nM
D(2) dopamine receptor
  Ki: 767 nM
[9]
  Ki: 58.2 nM
D(3) dopamine receptor
  Ki: 116 nM
[10]
  Ki: 98.8 nM
[11]
  Ki: 126 nM
